In one assay the test system is MDA-MB-231. As to the kind of experiment: cells. As to conditions: Homo sapiens, MDA-MB-231, 72 h. The class given is functional, cell-based.
In the next assay the test system is HCT-116. As to the kind of experiment: cells. The format is functional, cell-based. As to conditions: Homo sapiens, HCT-116, 72 h.
The next assay concerns HepG2. Description: Antiproliferative activity against human HepG2 cells assessed as inhibition of cell growth measured after 72 hrs by MTT assay. To be noted: HepG2, 72 h. The class given is functional, cell-based. Background: Tetrazolium dyes change colour on reduction, which living cells bring about.
The subject of the next assay is HeLa. As to the kind of experiment: cells. The format is functional, cell-based. To be noted: Homo sapiens, 72 h.
The test system of another assay is CNE-2. Description: cells. The class given is functional, cell-based. To be noted: Homo sapiens, CNE-2, 72 h.
The test system of another assay is MCF7. Description: cells. The format is functional, cell-based. To be noted: Homo sapiens, MCF7, 72 h.
The next assay relates to A549. As to the kind of experiment: cells. To be noted: Homo sapiens, A549, 72 h. The class given is functional, cell-based.
Assay [1] deals with T1, Protein deacetylase HDAC6 (Homo sapiens) (UniProt Q9UBN7).
T1 sequence (whole entry): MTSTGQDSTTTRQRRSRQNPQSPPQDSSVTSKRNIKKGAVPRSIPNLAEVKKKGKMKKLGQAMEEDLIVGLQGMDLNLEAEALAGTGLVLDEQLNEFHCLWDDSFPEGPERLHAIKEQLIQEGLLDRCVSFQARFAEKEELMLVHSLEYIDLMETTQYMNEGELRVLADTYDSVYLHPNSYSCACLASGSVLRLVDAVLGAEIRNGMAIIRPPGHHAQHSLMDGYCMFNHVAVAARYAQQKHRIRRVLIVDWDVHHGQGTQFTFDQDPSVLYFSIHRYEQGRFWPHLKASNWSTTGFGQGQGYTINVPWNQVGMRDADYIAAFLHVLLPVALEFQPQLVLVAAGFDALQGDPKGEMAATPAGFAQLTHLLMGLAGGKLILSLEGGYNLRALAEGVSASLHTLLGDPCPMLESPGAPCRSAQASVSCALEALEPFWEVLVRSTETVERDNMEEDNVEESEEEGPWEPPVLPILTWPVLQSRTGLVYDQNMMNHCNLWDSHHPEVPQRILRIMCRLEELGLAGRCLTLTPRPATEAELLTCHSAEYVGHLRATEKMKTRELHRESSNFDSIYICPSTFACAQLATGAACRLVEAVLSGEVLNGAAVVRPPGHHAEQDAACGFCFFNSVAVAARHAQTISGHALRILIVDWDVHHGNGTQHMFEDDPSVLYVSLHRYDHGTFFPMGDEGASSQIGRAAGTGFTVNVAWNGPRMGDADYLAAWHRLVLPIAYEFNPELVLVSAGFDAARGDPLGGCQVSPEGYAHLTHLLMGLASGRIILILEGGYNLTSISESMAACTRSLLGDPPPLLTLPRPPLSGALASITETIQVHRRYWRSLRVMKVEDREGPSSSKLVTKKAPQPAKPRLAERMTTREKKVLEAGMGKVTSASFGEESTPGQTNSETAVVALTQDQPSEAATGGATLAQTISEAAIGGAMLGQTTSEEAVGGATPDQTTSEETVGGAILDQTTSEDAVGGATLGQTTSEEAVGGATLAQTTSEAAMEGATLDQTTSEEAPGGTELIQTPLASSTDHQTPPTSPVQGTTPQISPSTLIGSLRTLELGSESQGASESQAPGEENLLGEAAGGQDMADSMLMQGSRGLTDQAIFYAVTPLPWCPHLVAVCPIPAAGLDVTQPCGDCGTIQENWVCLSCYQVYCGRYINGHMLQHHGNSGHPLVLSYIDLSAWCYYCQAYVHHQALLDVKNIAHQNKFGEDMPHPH
As to the kind of experiment: Inhibition of HDAC6 (unknown origin) at 1 uM using Ac-peptide as a substrate pretreated for 15 mins followed by substrate addition relative to control.

The next assay relates to SNU-423. As to the kind of experiment: Antiproliferative activity against human SNU-423 cells assessed as inhibition of cell growth measured after 72 hrs by MTT assay. As to conditions: SNU-423, 72 h. The format is functional, cell-based.
The subject of another assay is SK-HEP1. Description: cells. As to conditions: Homo sapiens, SK-HEP1, 72 h. The class given is functional, cell-based.
In the next assay the test system is PLC-PRF-5. As to the kind of experiment: Antiproliferative activity against human PLC-PRF-5 cells assessed as inhibition of cell growth measured after 72 hrs by MTT assay. The format is functional, cell-based. To be noted: PLC-PRF-5, 72 h.
The test system of the next assay is Bel-7402. Description: Antiproliferative activity against human Bel-7402 cells assessed as inhibition of cell growth measured after 72 hrs by MTT assay. The class given is functional, cell-based. To be noted: Bel-7402, 72 h.
The next assay relates to Huh-7. Description: cells. The class given is functional, cell-based. To be noted: Homo sapiens, Huh-7, 72 h.
Assay [2] has as its target Serine/threonine-protein kinase mTOR (Homo sapiens, UniProt P42345). Description: Inhibition of mTOR (unknown origin) at 1 uM using U-Light-4E-BP1 peptide as a substrate in the presence of ATP incubated for 30 mins by Lance ultra assay relative to control.
The next assay has as its system Hep 3B2. As to the kind of experiment: cells. The format is functional, cell-based. To be noted: Homo sapiens, Hep3B, 72 h.

14 molecules from ChEMBL document CHEMBL4842376, “Design, synthesis and biological evaluation of novel hybrids targeting mTOR and HDACs for potential treatment of hepatocellular carcinoma” (Eur J Med Chem, 2021) can be followed below.

Bounds are passed on as bounds.

Description for A549: Antiproliferative activity against human A549 cells assessed as inhibition of cell growth measured after 72 hrs by MTT assay
Description for CNE-2: Antiproliferative activity against human CNE-2 cells assessed as inhibition of cell growth measured after 72 hrs by MTT assay
Description for HCT-116: Antiproliferative activity against human HCT-116 cells assessed as inhibition of cell growth measured after 72 hrs by MTT assay
Description for HeLa: Antiproliferative activity against human HeLa cells assessed as inhibition of cell growth measured after 72 hrs by MTT assay
Description for Hep 3B2: Antiproliferative activity against human Hep3B cells assessed as inhibition of cell growth measured after 72 hrs by MTT assay
Description for Huh-7: Antiproliferative activity against human Huh-7 cells assessed as inhibition of cell growth measured after 72 hrs by MTT assay
Description for MCF7: Antiproliferative activity against human MCF7 cells assessed as inhibition of cell growth measured after 72 hrs by MTT assay
Description for MDA-MB-231: Antiproliferative activity against human MDA-MB-231 cells assessed as inhibition of cell growth measured after 72 hrs by MTT assay
Description for SK-HEP1: Antiproliferative activity against human SK-HEP1 cells assessed as inhibition of cell growth measured after 72 hrs by MTT assay

`Nc1nc2cc(-c3nn(CCC(=O)NO)c4ncnc(N)c34)ccc2o1`: the IC50 – broadly, the point on the concentration scale where inhibition reaches its midpoint – in the assay with MDA-MB-231 is over 50 µM; in the assay with HCT-116, over 100 µM; in the assay with HepG2 it was over 150 µM; with HeLa it was over 150 µM; in the assay on CNE-2 it was over 150 µM; in the assay on MCF7 it was over 100 µM. In the assay on A549, the IC50 is over 150 µM.

As for `Nc1ncnc2c1c(-c1cnc3[nH]ccc3c1)nn2CCCCCCCCCC(=O)NO`, the inhibition (in general, the change of the read-out against control, counted positive when it falls) in [1] came to 98.3%; in assay [2] it was 97.6%. Also, the IC50 turned out to be 8.16 µM in the assay with SNU-423; 23.5 µM with SK-HEP1; 10.1 µM with MDA-MB-231; 34.2 µM with PLC-PRF-5; 42.1 µM in the assay on Bel-7402; 10.1 µM with Huh-7. Besides, the IC50 was 18.7 µM in the assay on HCT-116; 11.7 µM in the assay on HepG2; 7.56 µM in the assay on HeLa; 2.2 µM with CNE-2; 23.2 µM in the assay with MCF7; 17.2 µM with Hep 3B2. Further, in the assay with A549, the IC50 worked out at 6.55 µM.

Consider `Nc1ncnc2c1c(-c1cnc3[nH]ccc3c1)nn2CCCCCC(=O)NO`, for which the IC50 was over 150 µM with SK-HEP1; over 100 µM in the assay on MDA-MB-231; over 150 µM in the assay on PLC-PRF-5; over 100 µM in the assay with Huh-7; 63.7 µM in the assay with HCT-116; 12.9 µM with HepG2. The IC50 with HeLa was over 150 µM; with CNE-2, over 50 µM; with MCF7, over 150 µM; with Hep 3B2, over 50 µM; with A549, over 150 µM.

As to `Nc1nc2cc(-c3nn(CC(=O)NO)c4ncnc(N)c34)ccc2o1`, the IC50 in the assay on MDA-MB-231 is 6.31 µM; with HCT-116 it was 11.4 µM; in the assay with HepG2 it was over 150 µM; in the assay with HeLa it was over 150 µM; with CNE-2, 12.2 µM; with MCF7 it was over 100 µM. In the assay with A549, this molecule gave an IC50 of 27.7 µM.

On to `Nc1ncnc2c1c(-c1cnc3[nH]ccc3c1)nn2CCC(=O)NO`, for which the IC50 in the assay with MDA-MB-231, in the assay on HCT-116, with HepG2, with CNE-2, with MCF7 and in the assay with A549 was over 150 µM throughout.

On to `Nc1nc2cc(-c3nn(CCCC(=O)NO)c4ncnc(N)c34)ccc2o1`, for which the IC50 is 19.5 µM with MDA-MB-231; 19.6 µM with HCT-116; over 50 µM with HepG2; over 150 µM with HeLa; over 50 µM in the assay on CNE-2; over 50 µM in the assay on MCF7. In the assay with A549, this molecule registered an IC50 of over 100 µM.

In the case of `Nc1ncnc2c1c(-c1cnc3[nH]ccc3c1)nn2CCCCC(=O)NO`, the IC50 in the assay on MDA-MB-231 was over 50 µM; in the assay on HCT-116, over 150 µM; in the assay on HepG2, 36.6 µM; in the assay with HeLa it was over 150 µM; in the assay with CNE-2, over 150 µM; in the assay on MCF7 it was over 150 µM. Moreover, the IC50 with A549 is over 150 µM.

With `Nc1ncnc2c1c(-c1cnc3[nH]ccc3c1)nn2CCCC(=O)NO`, the IC50 is over 150 µM in the assay with MDA-MB-231; over 150 µM with HCT-116; over 50 µM with HepG2; over 150 µM in the assay on CNE-2; over 150 µM in the assay on MCF7; over 150 µM with A549.

For the molecule `Nc1ncnc2c1c(-c1cnc3[nH]ccc3c1)nn2CCCCCCCC(=O)NO`, the inhibition came out at 100% in [1] and 98.7% in assay [2]. The IC50 with SNU-423 was determined as 5.4 µM; with SK-HEP1, 3.95 µM; in the assay with MDA-MB-231 it was 15.8 µM; in the assay with PLC-PRF-5, 35.9 µM; in the assay with Bel-7402 it was 17.4 µM; in the assay on Huh-7 it was 23.5 µM. Also, the IC50 came to 6.76 µM with HCT-116; 5.63 µM with HepG2; 29.1 µM in the assay on HeLa; 8.99 µM with CNE-2; 7.57 µM in the assay with MCF7; 16.3 µM with Hep 3B2. The molecule further gave an IC50 in the assay with A549 of 51 µM.

Consider `Nc1ncnc2c1c(-c1cnc3[nH]ccc3c1)nn2CCCCCCC(=O)NO`, for which the inhibition in assay [1] worked out at 99.1%; in assay [2], 98.7%. For the same molecule, the IC50 with SNU-423 is 7.5 µM; with SK-HEP1 it was 14.7 µM; with MDA-MB-231, 37.7 µM; in the assay with PLC-PRF-5, over 50 µM; in the assay with Bel-7402, 30.8 µM; with Huh-7 it was 50.9 µM. Moreover, the IC50 in the assay on HCT-116 came out at 9.86 µM; in the assay with HepG2, 10.3 µM; with HeLa, 22 µM; in the assay with CNE-2, 19.5 µM; in the assay with MCF7 it was 19.8 µM; in the assay on Hep 3B2, 26.2 µM. In addition, the IC50 with A549 turned out to be 50 µM.

On to `Nc1nc2cc(-c3nn(CCCCCC(=O)NO)c4ncnc(N)c34)ccc2o1`, for which the inhibition turned out to be 97.8% in [1] and 100% in assay [2]. The IC50 is 12.6 µM with SNU-423; 3.08 µM in the assay with SK-HEP1; 19 µM in the assay on MDA-MB-231; over 50 µM in the assay on PLC-PRF-5; 2.03 µM in the assay with Bel-7402; 9.91 µM in the assay on Huh-7. Moreover, the IC50 turned out to be 21.5 µM in the assay on HCT-116; 1.99 µM in the assay with HepG2; 15.4 µM in the assay on HeLa; 37.6 µM in the assay on CNE-2; 12.4 µM with MCF7; 34.2 µM in the assay with Hep 3B2. The same molecule came in with an IC50 with A549 of over 100 µM.

Regarding `Nc1ncnc2c1c(-c1cnc3[nH]ccc3c1)nn2CC(=O)NO`, the IC50 with MDA-MB-231, in the assay on HCT-116, in the assay on HepG2, with CNE-2, with MCF7 and in the assay on A549 was over 150 µM each time.

For the molecule `Nc1nc2cc(-c3nn(CCCCCCCCCC(=O)NO)c4ncnc(N)c34)ccc2o1`, the inhibition in assay [1] is 98.2%; in assay [2] it was 92.4%. For the same molecule, the IC50 is over 50 µM in the assay with SNU-423; 14.1 µM in the assay on SK-HEP1; over 50 µM in the assay with MDA-MB-231; over 100 µM in the assay on PLC-PRF-5; over 50 µM with Bel-7402; 41.2 µM with Huh-7. Also, the IC50 in the assay on HCT-116 was 23.1 µM; in the assay with HepG2, 28.6 µM; in the assay with HeLa it was over 50 µM; in the assay with CNE-2, 36.8 µM; with MCF7 it was over 50 µM; with Hep 3B2, 28.8 µM. Moreover, the IC50 in the assay on A549 is over 50 µM.

Turning to `Nc1nc2cc(-c3nn(CCCCC(=O)NO)c4ncnc(N)c34)ccc2o1`, the inhibition in [1] is 95.1%; in assay [2], 99.4%. Moreover, the IC50 was determined as 3.03 µM in the assay with SNU-423; 6.4 µM in the assay with SK-HEP1; 21.2 µM with MDA-MB-231; 29.6 µM in the assay with PLC-PRF-5; 2.4 µM in the assay on Bel-7402; 9.22 µM with Huh-7. Also, the IC50 was 34 µM in the assay on HCT-116; 2.1 µM with HepG2; 32.2 µM in the assay on HeLa; over 50 µM in the assay with CNE-2; 14 µM with MCF7; 33.7 µM with Hep 3B2. The IC50 in the assay with A549 was over 100 µM.
